Results taken from the supplement of paper PMC10307832.

What was measured:
Assay in all cases: relative viability (nuclei count vs DMSO), 5 days (fraction); higher = more cells survive
AZ505 + Crizotinib = compound: C1CCC(CC1)N(CCNCCC2=C3C(=C(C=C2)O)NC(=O)CO3)C(=O)CCNCCC4=CC(=C(C=C4)Cl)Cl [AZ505] + C[C@@H](Oc1cc(-c2cnn(C3CCNCC3)c2)cnc1N)c1c(Cl)ccc(F)c1Cl [Crizotinib] (partner 1 µM)
How it was run: (§1)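 Lung cancer cell lines were seeded in 1536-well plates and dosed by pin tool the next day, with either a single drug or a fixed anchor-drug dose combined with five library-drug doses (not always all listed) spaced in √10 steps. Five days later, one step fixed the cells and stained their nuclei (final 0.05% Triton X-100, 1% formaldehyde, 1 ug/ml Hoechst), and nuclei were counted on 4× images. Relative viability is the nuclei count in treated wells divided by the count in vehicle wells, and each value is the median of duplicate plates.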

AZ505 + Decitabine = compound: C1CCC(CC1)N(CCNCCC2=C3C(=C(C=C2)O)NC(=O)CO3)C(=O)CCNCCC4=CC(=C(C=C4)Cl)Cl [AZ505] + Nc1ncn([C@H]2C[C@H](O)[C@@H](CO)O2)c(=O)n1 [Decitabine] (partner 2 µM)
How it was run: as §1

Dactolisib + Tozasertib = compound: Cn1c(=O)n(-c2ccc(C(C)(C)C#N)cc2)c2c3cc(-c4cnc5ccccc5c4)ccc3ncc21 [Dactolisib] + Cc1cc(Nc2cc(N3CCN(C)CC3)nc(Sc3ccc(NC(=O)C4CC4)cc3)n2)n[nH]1 [Tozasertib] (partner 0.1 µM)
How it was run: as §1

Dactolisib + Vorinostat = compound: Cn1c(=O)n(-c2ccc(C(C)(C)C#N)cc2)c2c3cc(-c4cnc5ccccc5c4)ccc3ncc21 [Dactolisib] + O=C(CCCCCCC(=O)Nc1ccccc1)NO [Vorinostat] (partner 1 µM)
How it was run: as §1

Row | Cell Line | relative viability (AZ505 + Crizotinib; first compound 0.08 µM) | relative viability (AZ505 + Crizotinib; first compound 0.253 µM) | relative viability (AZ505 + Crizotinib; first compound 0.8 µM) | relative viability (AZ505 + Crizotinib; first compound 2.53 µM) | relative viability (AZ505 + Crizotinib; first compound 8 µM) | relative viability (AZ505 + Decitabine; first compound 0.08 µM) | relative viability (AZ505 + Decitabine; first compound 0.253 µM) | relative viability (AZ505 + Decitabine; first compound 0.8 µM) | relative viability (AZ505 + Decitabine; first compound 2.53 µM) | relative viability (AZ505 + Decitabine; first compound 8 µM) | relative viability (Dactolisib + Tozasertib; first compound 0.002 µM) | relative viability (Dactolisib + Tozasertib; first compound 0.006325 µM) | relative viability (Dactolisib + Tozasertib; first compound 0.02 µM) | relative viability (Dactolisib + Tozasertib; first compound 0.06325 µM) | relative viability (Dactolisib + Tozasertib; first compound 0.2 µM) | relative viability (Dactolisib + Vorinostat; first compound 0.002 µM) | relative viability (Dactolisib + Vorinostat; first compound 0.006325 µM) | relative viability (Dactolisib + Vorinostat; first compound 0.02 µM) | relative viability (Dactolisib + Vorinostat; first compound 0.06325 µM) | relative viability (Dactolisib + Vorinostat; first compound 0.2 µM)
1 | NCI-H2126 | 0.98 | 1.05 | 0.982 | 1.03 | 1.08 | 0.589 | 0.6 | 0.547 | 0.563 | 0.59 | 0.813 | 0.829 | 0.814 | 0.536 | 0.452 | 0.856 | 0.763 | 0.594 | 0.427 | 0.426
2 | HOP-62 | 0.849 | 0.853 | 1.03 | 0.964 | 0.88 | 0.21 | 0.221 | 0.259 | 0.205 | 0.204 | 0.423 | 0.383 | 0.473 | 0.306 | 0.309 | 0.572 | 0.541 | 0.543 | 0.177 | 0.219
3 | NCI-H520 | 0.744 | 0.899 | 0.704 | 0.727 | 0.728 | 0.458 | 0.583 | 0.465 | 0.519 | 0.601 | 0.425 | 0.468 | 0.365 | 0.196 | 0.218 | 0.747 | 0.596 | 0.416 | 0.212 | 0.151
4 | NCI-H1755 | 0.767 | 0.928 | 0.907 | 0.87 | 0.777 | 0.721 | 0.727 | 0.724 | 0.711 | 0.772 | 0.613 | 0.555 | 0.577 | 0.542 | 0.419 | 0.758 | 0.77 | 0.71 | 0.619 | 0.477
5 | NCI-H2023 | 0.641 | 0.719 | 0.683 | 0.795 | 0.67 | 0.196 | 0.242 | 0.228 | 0.255 | 0.26 | 0.351 | 0.312 | 0.313 | 0.109 | 0.0881 | 0.305 | 0.479 | 0.439 | 0.098 | 0.11
6 | NCI-H2009 | 0.989 | 1.03 | 0.976 | 1 | 0.976 | 0.451 | 0.397 | 0.361 | 0.362 | 0.365 | 0.742 | 0.717 | 0.764 | 0.488 | 0.238 | 0.746 | 0.719 | 0.704 | 0.568 | 0.202
